Assay results: patent US20180252736A1, “CB2 RECEPTOR INTERNALIZATION” (Arena Pharmaceuticals, Inc., priority 2015, published 2018)
“Also recorded” adds a separate entry of the source.

Key:
[1] = target: T1, hCB2 (Homo sapiens, UniProt P34972); details: cited from earlier work
[2] = test system: CB2 receptor over CB1 receptor; details: Eur. Urol. 2010 FIG. 2a; cited from earlier work
[3] = target: CB1 (Homo sapiens, UniProt P21554); details: read-out: potency in GTP-γS binding assays, CB1 receptor; cited from earlier work
[4] = Plasma concentration in the osteoarthritis pain model studies; format: in vivo, rat; details: for course of plasma concentration: during the pain model time course
[5] = test system: MIA-induced osteoarthritis in male Sprague Dawley rats; experiment: Osteoarthritis pain model (MIA); format: in vivo, rat; details: for in vivo efficacy over time in the osteoarthritis pain model: oral dosing; for time following dosing at which in vivo efficacy was lost / time following dosing up to which in vivo efficacy was maintained / time of peak efficacy following dosing: osteoarthritis pain model
Text: Injection of monosodium iodoacetate (MIA) into a joint (J Rheumatol 14:130-1, 1987) inhibits the activity of glyceraldehyde-3-phosphate dehydrogenase in chondrocytes, resulting in disruption of glycolysis and eventually in cell death. The progressive loss of chondrocytes results in histological and morphological changes of the articular cartilage, closely resembling those seen in osteoarthritis patients.
Osteoarthritis was induced in 200 g male Sprague Dawley rats. After brief anesthesia by isoflurane, rats received a single intra-articular injection of MIA (2 mg) (Catalog #19148, Sigma Aldrich, Saint Louis, Mo.) dissolved in 0.9% sterile saline in a 50 μL volume administered through the patella ligament into the joint space of the left knee with a 30 G needle. Following injection, animals were allowed to recover from anesthesia before being returned to the main housing vivarium.
Typically during disease progression, there is an inflammation period of 0-7 days post-intra-articular injection followed by progressive degeneration of the cartilage and subchondral bone from days 14-55. Efficacy studies with a compound described herein took place from day 14 onwards and were performed twice a week with at least three days of wash-out in between each assay. Three different assays can be used to measure pain. Tactile allodynia can be measured via von Frey assay, hind limb paw weight distribution can be monitored using an incapacitance tester (Columbus Instruments, Columbus, Ohio), and hind limb grip strength can be measured using a grip strength meter (Columbus Instruments, Columbus, Ohio). Briefly, the von Frey assay was performed using the standard up/down method with von Frey filaments. Hind paw weight distribution was determined by placing rats in a chamber so that each hind paw rested on a separate force plate of the incapacitance tester. The force exerted by each hind limb (measured in grams) was averaged over a three second period. Three measurements are taken for each rat, and the change in hind paw weight distribution was calculated. Peak hind limb grip force was conducted by recoding the maximum compressive force exerted on the hind limb mesh gauge set on the grip strength meter. During testing, each rat was restrained and the paw of the injected knee was allowed to grip the mesh. The animal was then pulled in an upward motion until their grip was broken. Each rat was tested three times, with the contralateral paw used as a control.
A baseline was established for animals prior to administration of compounds. The MIA-treated groups of rats were then dosed with either vehicle (PEG400, orally), test compound (at 3 mg/kg, 10 mg/kg, and 30 mg/kg, orally), or morphine (3 mg/kg, subcutaneously). The dosing volume was 500 μL. One hour after dosing, von Frey assay, hind limb weight distribution and/or hind limb grip analysis was performed to measure the efficacy of the test compounds.

[6] = target: T2, rat CB2 receptor (Rattus norvegicus, UniProt Q9QZN9); experiment: CB2 receptor internalization assay (conventional fluorescence microscopy); format: cell-based; parameters: expressed in transfected cells; details: for receptor internalization: FIG. 10 comparison; for receptor internalization efficacy relative to CP55,940, rat CB2: fluorescence microscopy
T2 sequence (Q9QZN9 1-360): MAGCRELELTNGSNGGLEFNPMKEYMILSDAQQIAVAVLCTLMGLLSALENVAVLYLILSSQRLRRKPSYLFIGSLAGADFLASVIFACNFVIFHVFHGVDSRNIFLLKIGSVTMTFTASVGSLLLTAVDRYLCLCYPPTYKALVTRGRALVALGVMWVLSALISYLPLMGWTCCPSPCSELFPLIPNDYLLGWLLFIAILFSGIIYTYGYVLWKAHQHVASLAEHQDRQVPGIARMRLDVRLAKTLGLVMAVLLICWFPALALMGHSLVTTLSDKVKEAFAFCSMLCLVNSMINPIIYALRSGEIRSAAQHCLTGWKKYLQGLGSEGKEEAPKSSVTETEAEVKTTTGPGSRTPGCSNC
Method: (§1) Receptor internalization assays for the CB2 receptor were performed using a high content imaging system (e.g., IN Cell Analyzer, GE Healthcare Life Sciences, Pittsburgh, Pa.), or by conventional fluorescence microscopy with accessory image analysis software.
[…]. On the day of the assay, growth media was removed from the cell plate and replaced with 25 μL pre-warmed RPMI media. Additionally, 25 μL of pre-warmed RPMI media containing a fluorescent nuclear stain (Hoescht 33342 dye (1:500 dilution); Catalog #H-1399, Invitrogen,) and fluorophore-labeled antibody (Alexa-488 anti-HA monoclonal antibody (1:50 dilution); Catalog #A-21287, Invitrogen, Waltham, Mass.) was added to the cell plate. Test compounds or CP55,940 dissolved in DMSO were serially diluted in DMSO and then further diluted in RPMI to achieve 3× concentrations in 0.5% DMSO. Aliquots (25 μL) of diluted test compounds were added to assay plates, which were then incubated in a water bath at 37° C. for 1 hour. Compound containing media was removed at the end of the treatment period by inversion of the plate. The assay plate was washed twice with PBS (150 μL/well) and the cells were then fixed with 2% formaldehyde/PBS solution for 10 minutes at room temperature. Fluorescence microscopy images were captured for each well on the plate (minimum of 6 per well). The internalization of anti-HA antibody-labeled CB2 receptors results in redistribution of fluorescence from the cell surface to intracellular endosomes, which appear as punctate fluorescent granules within the cell. Quantification of receptor internalization was performed by measuring the Alexa-488 anti-HA monoclonal antibody-stained intracellular granule fluorescence intensities normalized per cell number in each well. Dose-response curves were generated using a minimum of 8 different test concentrations and triplicate determinations were made at each test concentration. Assay performance was monitored by inclusion of a standard CB2 reference agonist such as CP55,940 and agonist internalization efficacies were reported relative to that of the reference agonist.

[7] = test system: human CB2 receptors; experiment: as above; format: cell-based
Method: as §1
[…]. On the day of the assay, growth media was removed from the cell plate and replaced with 25 μL pre-warmed RPMI media. Additionally, 25 μL of pre-warmed RPMI media containing a fluorescent nuclear stain (Hoescht 33342 dye (1:500 dilution); Catalog #H-1399, Invitrogen,) and fluorophore-labeled antibody (Alexa-488 anti-HA monoclonal antibody (1:50 dilution); Catalog #A-21287, Invitrogen, Waltham, Mass.) was added to the cell plate. Test compounds or CP55,940 dissolved in DMSO were serially diluted in DMSO and then further diluted in RPMI to achieve 3× concentrations in 0.5% DMSO. […] Fluorescence microscopy images were captured for each well on the plate (minimum of 6 per well). The internalization of anti-HA antibody-labeled CB2 receptors results in redistribution of fluorescence from the cell surface to intracellular endosomes, which appear as punctate fluorescent granules within the cell. Quantification of receptor internalization was performed by measuring the Alexa-488 anti-HA monoclonal antibody-stained intracellular granule fluorescence intensities normalized per cell number in each well. […]

[8] = target: T2, rat CB2 receptor; experiment: β-arrestin recruitment assay (PathHunter CHO-K1); format: cell-based; parameters: host or cells: PathHunter CHO-K1; details: relative to CP55,940
[9] = target: T1, hCB2; experiment: β-arrestin recruitment assay (PathHunter CHO-K1); format: cell-based; parameters: host or cells: PathHunter CHO-K1; details: relative to CP55,940

T1 sequence (P34972 whole entry): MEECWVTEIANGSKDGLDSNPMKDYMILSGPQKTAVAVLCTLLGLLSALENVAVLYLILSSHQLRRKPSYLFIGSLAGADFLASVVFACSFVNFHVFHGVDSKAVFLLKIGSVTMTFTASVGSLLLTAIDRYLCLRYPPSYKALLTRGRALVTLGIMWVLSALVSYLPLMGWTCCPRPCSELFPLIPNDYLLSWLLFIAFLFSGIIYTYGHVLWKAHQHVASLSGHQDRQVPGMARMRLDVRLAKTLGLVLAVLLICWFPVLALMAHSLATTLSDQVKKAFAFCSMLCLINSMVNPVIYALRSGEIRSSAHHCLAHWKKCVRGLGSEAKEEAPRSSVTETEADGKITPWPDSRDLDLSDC
Sequence of CB1 (P21554 whole entry): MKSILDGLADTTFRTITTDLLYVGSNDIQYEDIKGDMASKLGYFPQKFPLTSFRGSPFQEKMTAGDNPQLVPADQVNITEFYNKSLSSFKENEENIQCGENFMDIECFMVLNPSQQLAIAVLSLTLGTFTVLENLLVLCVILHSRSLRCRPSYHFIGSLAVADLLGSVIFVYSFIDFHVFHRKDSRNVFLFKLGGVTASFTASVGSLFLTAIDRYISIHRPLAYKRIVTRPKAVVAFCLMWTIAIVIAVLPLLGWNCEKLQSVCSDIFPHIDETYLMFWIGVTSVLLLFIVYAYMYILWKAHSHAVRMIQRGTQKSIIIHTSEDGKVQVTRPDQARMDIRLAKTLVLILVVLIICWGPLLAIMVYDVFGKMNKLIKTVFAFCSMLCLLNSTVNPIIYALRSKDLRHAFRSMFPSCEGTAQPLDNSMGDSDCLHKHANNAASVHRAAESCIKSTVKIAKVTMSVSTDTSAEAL

CCCCCCC(C)(C)c1cc(O)c(C2CC(=O)[C@H]3C[C@@H]2C3(C)C)c(OC(=O)/C=C/C(=O)O)c1 (some centres unmarked) [cannabinor]
agonist character at the CB2 receptor upon closer examination of the published data ([1]; Eur. Urol. 2010 FIG. 2b): only a partial agonist
agonist character at the human CB2 receptor as the publication suggests [1]: full agonist
selectivity for the CB2 receptor over the CB1 receptor (GTP-γS) [1]: 321 fold
EC50 ([1]; read-out: potency in GTP-γS binding assays, CB2 receptor): 17.4 nM
selectivity measured in radioligand binding assays [2]: approximately 10 fold
EC50 [3]: 5.59 µM

O=C(N[C@H](CO)C1CCOCC1)c1nn(-c2c[n+]([O-])ccn2)c2c1C[C@H]1C[C@@H]21 [Compound 841]
course of plasma concentration [4]: rapidly declining plasma concentrations; also recorded: decreasing plasma concentrations
concentration at 6 h ([4]; rat, plasma, oral, when efficacy was lost, read-out: plasma drug levels at the six hour timepoint): < 3 ng/mL
in vivo efficacy over time in the osteoarthritis pain model [5]: sustained in vivo efficacy
time following dosing at which in vivo efficacy was lost [5]: six
time following dosing up to which in vivo efficacy was maintained [5]: four
receptor internalization [6]: high receptor internalization
receptor internalization efficacy relative to CP55,940, rat CB2 [6]: 105%

O=C(NC1(C(F)(F)F)CCC1)c1nn(-c2c[n+]([O-])ccn2)c2c1C[C@@H]1C[C@H]21 [Compound 765]
course of plasma concentration [4]: decreasing plasma concentrations
in vivo efficacy over time in the osteoarthritis pain model [5]: sustained in vivo efficacy
time following dosing up to which in vivo efficacy was maintained [5]: six
receptor internalization efficacy relative to CP55,940, human CB2 [7]: 97%
receptor internalization efficacy relative to CP55,940, rat CB2 [6]: 99%

CC(C)(NC(=O)c1nn(-c2c[n+]([O-])ccn2)c2c1C[C@@H]1C[C@H]21)C(F)(F)F [Compound 919]
course of plasma concentration [4]: rapidly declining plasma concentrations; also recorded: decreasing plasma concentrations
in vivo efficacy over time in the osteoarthritis pain model [5]: sustained in vivo efficacy
time following dosing up to which in vivo efficacy was maintained [5]: six
receptor internalization efficacy relative to CP55,940, human CB2 [7]: 95%
receptor internalization efficacy relative to CP55,940, rat CB2 [6]: 92%

CNC(=O)[C@@H](NC(=O)c1nn(-c2c[n+]([O-])ccn2)c2c1C[C@H]1C[C@@H]21)C(C)(C)C [Compound 704]
course of plasma concentration [4]: increasing plasma concentrations
in vivo efficacy over time in the osteoarthritis pain model [5]: rapid loss of in vivo efficacy
time of peak efficacy following dosing [5]: one
β-arrestin efficacy compared to CP55,940, rat CB2 [8]: 88%
β-arrestin efficacy compared to CP55,940, human CB2 [9]: 106%

CC(CO)(CO)NC(=O)c1nn(-c2cc(C#N)ccn2)c2c1C[C@H]1C[C@@H]21 [Compound 820]
course of plasma concentration [4]: high plasma concentrations
in vivo efficacy over time in the osteoarthritis pain model [5]: rapid loss of in vivo efficacy
time of peak efficacy following dosing [5]: one
β-arrestin efficacy compared to CP55,940, rat CB2 [8]: 56%
β-arrestin efficacy compared to CP55,940, human CB2 [9]: 82%

CC(C)(CO)NC(=O)c1nn(-c2ccc(F)cc2F)c2c1C[C@H]1C[C@@H]21 [Compound 493]
course of plasma concentration [4]: high plasma concentrations that did not decline significantly until four hours following dosing
in vivo efficacy over time in the osteoarthritis pain model [5]: rapid loss of in vivo efficacy
time following dosing at which in vivo efficacy was lost [5]: two and four
receptor internalization [6]: low receptor internalization
receptor internalization efficacy relative to CP55,940, rat CB2 [6]: 58%
